Literature values in patent publication US20200397820A1, “Glycerol Release Promoter” (KOHAKU BIO TECHNOLOGY CO., LTD., priority 2018, published 2020).

Test system: cultured adipocytes
Settings: Patent Literature 10

## C[C@@]12C[C@@]3(O)O[C@@H](O1)[C@]1(COC(=O)c4ccccc4)[C@H]3C[C@@]12O[C@@H]1O[C@H](CO)[C@@H](O)[C@H](O)[C@H]1O [Paeoniflorin]
  release of glycerol into the culture medium: promotes the release of glycerol
